In ChEMBL document CHEMBL1208702, “Use of 2-[(18)F]fluoroethylazide for the Staudinger ligation - Preparation and characterisation of GABA(A) receptor binding 4-quinolones” (Bioorg Med Chem Lett, 2010):

Assay: Displacement of [3H]Ro151788 from GABA-A receptor in Wistar rat cerebellar membrane after 1 hr by liquid scintillation counting
Type: cell membranes, Cerebellum

For `O=C(NCCCF)c1c[nH]c2ccc(Br)cc2c1=O`, the Ki was 1.3 nM.
